Key:
[1] = biological target: T1, mAChR rM4 (Rattus norvegicus, UniProt P08485); experiment: mAChR rM4 cell-based functional assay (calcium mobilization, potentiation of EC20 acetylcholine response)
T1 construct: expressed in transfected cells
T1 sequence (P08485 1-478): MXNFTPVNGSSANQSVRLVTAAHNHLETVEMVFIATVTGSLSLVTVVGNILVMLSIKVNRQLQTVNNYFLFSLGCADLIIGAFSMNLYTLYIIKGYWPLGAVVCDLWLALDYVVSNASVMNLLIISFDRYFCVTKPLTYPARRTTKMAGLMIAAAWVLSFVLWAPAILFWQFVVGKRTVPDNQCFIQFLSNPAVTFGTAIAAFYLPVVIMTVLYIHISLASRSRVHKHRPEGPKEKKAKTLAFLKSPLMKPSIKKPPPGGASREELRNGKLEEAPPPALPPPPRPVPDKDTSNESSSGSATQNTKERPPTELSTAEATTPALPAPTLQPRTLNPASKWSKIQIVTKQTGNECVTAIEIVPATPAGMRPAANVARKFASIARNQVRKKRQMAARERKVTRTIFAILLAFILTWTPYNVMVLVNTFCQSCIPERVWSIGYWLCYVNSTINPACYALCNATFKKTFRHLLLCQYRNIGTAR
From the text: Chinese hamster ovary (CHO-K1) cells stably expressing rat (r)M1 were purchased from the American Type Culture Collection and cultured according to their indicated protocol. CHO cells stably expressing human (h)M2, hM3, and hM5 were described previously (Levey A I, et al., (1991) J Neurosci 11:3218-3226.); hM1 and hM4 cDNAs were purchased from Missouri S&T cDNA Resource; rM4 cDNA was provided by T. I. Bonner (National Institutes of Health, Bethesda, Md.). rM2 and rM3 were cloned from a rat brain cDNA library and sequence verified. hM1, rM2, rM3, hM4, and rM4 cDNAs were used to stably transfect CHO-K1 cells purchased from the American Type Culture Collection using Lipofectamine® 2000. To make stable rM2, hM2, rM3, hM4, and rM4 cell lines for use in calcium mobilization assays, these cells also were stably transfected with a chimeric G-protein (Gqi5) (provided by B. R. Conklin, University of California, San Francisco) using Lipofectamine® 2000. rM1, hM1, rM3, hM3, rM5, and hM5 cells were grown in Ham's F-12 medium containing 10% heat-inactivated fetal bovine serum (FBS), 20 mM HEPES, and 50 μg/mL G418 sulfate. rM2-Gqi5, hM2-Gqi5, and hM4-Gqi5 cells were grown in the same medium also containing 500 μg/mL hygromycin B. Stable rM4-Gqi5 cells were grown in DMEM containing 10% heat-inactivated FBS, 20 mM HEPES, 400 μg/mL G418 sulfate, and 500 μg/mL Hygromycin B.
For high throughput measurement of agonist-evoked increases in intracellular calcium, CHO-K1 cells stably expressing the target muscarinic receptor were plated in growth medium lacking G418 and hygromycin at 15,000 cells/20 μL/well in Greiner 384-well black-walled, tissue culture (TC)-treated, clear-bottom plates (VWR). Cells were incubated overnight at 37° C. and 5% CO2. The next day, cells were washed using an ELX 405 (BioTek) with four washes (80 μL) of assay buffer then aspirated to 20 μL. Next, 20 μL of 16 μM Fluo-4/acetoxymethyl ester (Invitrogen, Carlsbad, Calif.) prepared as a 2.3 mM stock in DMSO and mixed in a 1:1 ratio with 10% (w/v) Pluronic F-127 and diluted in assay buffer was added to the wells and the cell plates were incubated for […] at 37° C. and 5% CO2. Dye was removed by washing with the ELX 405 (four 80 μL washes of assay buffer) then aspirated to 20 μL. Compound master plates were formatted in an 11 point CRC format (1:3 dilutions) in 100% DMSO with a starting concentration of 10 mM using the BRAVO liquid handler (Agilent). Test compound CRCs were then transferred to daughter plates (240 nL) using the Echo acoustic plate reformatter (Labcyte, Sunnyvale, Calif.) and then diluted into assay buffer (40 μL) to a 2× stock using a Thermo Fisher Combi (Thermo Fisher Scientific, Waltham, Mass.).
Calcium flux was measured using the Functional Drug Screening System (FDSS) 6000 (Hamamatsu Corporation, Tokyo, Japan) as an increase in the fluorescent static ratio. Compounds were applied to cells (20 μL, 2×) using the automated system of the FDSS 6000 at 4 s into the 300 s protocol and the data were collected at 1 Hz. At 144 s into the 300 s protocol, 10 μL of an EC20 concentration of the muscarinic receptor agonist acetylcholine was added (5×), followed by the addition of 12 μL an EC80 concentration of acetylcholine at the 230 s time point (5×). Agonist activity was analyzed as a concentration-dependent increase in calcium mobilization upon compound addition. Positive allosteric modulator activity was analyzed as a concentration-dependent increase in the EC20 acetylcholine response. Antagonist activity was analyzed as a concentration-dependent decrease in the EC80 acetylcholine response. Concentration-response curves were generated using a four-parameter logistical equation in XLfit™ curve fitting software (IDBS, Bridgewater, N.J.) for Excel (Microsoft, Redmond, Wash.) or Prism (GraphPad Software, Inc., San Diego, Calif.). […]

[2] = patients treated with AChE inhibitor; cited from earlier work
[3] = cited from earlier work
[4] = Alzheimer's disease patients; cited from earlier work

In the case of `Cc1nnc2sc3c(NCC4CCN(S(C)(=O)=O)CC4)nn(C)c3c2c1C` [Compound 24, 1,7,8-trimethyl-N-((1-(methylsulfonyl)piperidin-4-yl)methyl)-1H-pyrazolo[3′,4′:4,5]thieno[2,3-c]pyridazin-3-amine], the Emax at 30 µM ([1]; %ACh maximum at 30 μM) is reported as 61% and the EC50 ([1]; rM4-transfected CHO-K1 cells, positive allosteric modulation of EC20 ACh response, read-out: EC50) is reported as 2.5 µM.
For `Nc1c2c(nc3ccccc13)CCCC2` [tacrine], the “hepatotoxicity with elevated liver transaminases observed in patients” value [2] is listed as “about 30 % of patients”.
In the case of `CCCCCCOc1nsnc1C1=CCCN(C)C1` [xanomeline], the catalepsy ([3]; animal models) is given as “without causing catalepsy”, the “activity in animal models” value ([3]; compared with known antipsychotic drugs) is given as “active in animal models with similar profiles to known antipsychotic drugs” and the “psychotic behavioral symptoms such as delusions, suspiciousness, vocal outbursts, and hallucinations” value [4] is given as “reduce psychotic behavioral symptoms”. The “treatment induced side effects” value [4] was “gastrointestinal effects”.

Reference: US9056875B2, “Substituted pyrazolo[3′,4′:4,5]thieno[2,3-C]pyridazin-3-amine analogs as positive allosteric modulators of the muscarinic acetylcholine receptor M4” (Vanderbilt University, priority 2012, dated 2015)
